Assay results as given in patent US9469615B2, “Quinoxalines and AZA-quinoxalines as CRTH2 receptor modulators” (Merck Sharp & Dohme Corp., priority 2010, dated 2016).

target: T1, hCRTH2 (Homo sapiens, UniProt Q9Y5Y4); assay: Radioligand binding assay ([3H]PGD2 competition, HEK-hCRTH2 membranes); conditions: [3H]PGD2 binding, values in text
T1 construct: expressed in transfected cells; host or cells: HEK (human embryonic kidney) cells expressing hCRTH2; membrane preparation
T1 sequence (Q9Y5Y4 1-395): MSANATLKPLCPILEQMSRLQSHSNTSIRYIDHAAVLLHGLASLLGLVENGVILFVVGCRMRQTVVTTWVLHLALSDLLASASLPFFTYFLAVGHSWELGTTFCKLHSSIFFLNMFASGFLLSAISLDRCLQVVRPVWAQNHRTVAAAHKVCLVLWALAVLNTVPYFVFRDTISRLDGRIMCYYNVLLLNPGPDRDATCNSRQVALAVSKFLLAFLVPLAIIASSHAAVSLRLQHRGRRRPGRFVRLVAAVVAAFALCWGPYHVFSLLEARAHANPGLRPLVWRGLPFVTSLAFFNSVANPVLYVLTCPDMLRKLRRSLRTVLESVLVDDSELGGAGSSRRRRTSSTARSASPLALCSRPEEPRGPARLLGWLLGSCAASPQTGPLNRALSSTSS
Outline: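 Competition binding with 3.0 nM [3H]PGD2 and 8-20 μg HEK-hCRTH2 membrane protein in 50 mM Tris-HCl pH 7.4, 1 mM EDTA, 2 mM MnCl2, 1% Me2SO, 60 min at room temperature. Nonspecific binding defined with 10 μM PGD2; bound radioactivity counted after filtration.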

Ki [nM]	Structure (SMILES)
4.2	C[C@H](NC(=O)c1ccc2nc(-c3ccccc3)c(CCCCC(=O)O)nc2c1)c1cncc2ccccc12 [compound 637, (S)-5-(7-((1-(isoquinolin-4-yl)ethyl)carbamoyl)-3-phenylquinoxalin-2-yl)pentanoic acid]
37.4	CC(c1ccon1)N(C)C(=O)c1ccc2nc(-c3ccc(Cl)cc3)c(CCCCC(=O)O)nc2c1 (stereo not shown) [compound 657, 5-(3-(4-chlorophenyl)-7-((1-(isoxazol-3-yl)ethyl)(methyl)carbamoyl)quinoxalin-2-yl) pentanoic acid]

same assay, conditions: [3H]PGD2 competition, Table B

Ki [nM]	Structure (SMILES)
0.1 to 2	O=C(O)CCCCc1nc2cc(C(=O)N3CCN(c4cccc(Cl)c4Cl)CC3)ccc2nc1-c1ccc(Cl)cc1 [compound 635, 5-(3-(4-chlorophenyl)-7-(4-(2,3-dichlorophenyl)piperazine-1-carbonyl)quinoxalin-2-yl)pentanoic acid]
0.1 to 2	Cc1ccc(N2CCN(C(=O)c3ccc4nc(-c5ccc(Cl)cc5)c(CCCCC(=O)O)nc4c3)CC2)c(C)c1 [compound 636, 5-(3-(4-chlorophenyl)-7-(4-(2,4-dimethylphenyl)piperazine-1-carbonyl)quinoxa1in-2-yl)pentanoic acid]
2.1 to 20	C[C@H](NC(=O)c1ccc2nc(-c3ccccc3)c(CCCCC(=O)O)nc2c1)c1cncc2ccccc12 [compound 637, (S)-5-(7-((1-(isoquinolin-4-yl)ethyl)carbamoyl)-3-phenylquinoxalin-2-yl)pentanoic acid]
201 to 700	C[C@@H](NC(=O)c1ccc2nc(-c3ccccc3)c(CCCCC(=O)O)nc2c1)c1cncc2ccccc12 [compound 638, (R)-5-(7-((1-(isoquinolin-4-yl)ethyl)carbamoyl)-3-phenylquinoxalin-2-yl)pentanoic acid]
20.1 to 200	C[C@@H](NC(=O)c1ccc2nc(-c3ccccc3)c(CCCCC(=O)O)nc2c1)c1cccc2ncccc12 [compound 639, (R)-5-(3-phenyl-7-((1-(quinolin-5-yl)ethyl)carbamoyl)quinoxalin-2-yl)pentanoic acid]
2.1 to 20	C[C@H](NC(=O)c1ccc2nc(-c3ccccc3)c(CCCCC(=O)O)nc2c1)c1cccc2ncccc12 [compound 640, (S)-5-(3-phenyl-7-((1-(quinolin-5-yl)ethyl)carbamoyl)quinoxalin-2-yl)pentanoic acid]
2.1 to 20	O=C(O)CCCCc1nc2cc(C(=O)N[C@@H]3CCOc4ccc(F)cc43)ccc2nc1-c1ccccc1 [compound 641, (R)-5-(7-((6-fluoro-chroman-4-yl)carbamoyl)-3-phenylquinoxalin-2-yl)pentanoic acid]
2.1 to 20	O=C(O)CCCCc1nc2cc(C(=O)N[C@@H]3CCOc4cc(F)c(F)cc43)ccc2nc1-c1ccccc1 [compound 642, (R)-5-(7-((6,7-difluorochroman-4-yl)carbamoyl)-3-phenylquinoxalin-2-yl)pentanoic acid]
0.1 to 2	O=C(O)CCCCc1nc2cc(C(=O)N[C@@H]3CCOc4cc(F)ccc43)ccc2nc1-c1ccccc1 [compound 643, (R)-5-(7-((7-fluoro-chroman-4-yl)carbamoyl)-3-phenylquinoxalin-2-yl)pentanoic acid]
2.1 to 20	C[C@@H](c1ccccc1)N(C)C(=O)c1ccc2nc(-c3ccc(Cl)cc3)c(CCCCC(=O)O)nc2c1 [compound 644, (S)-5-(3-(4-chloro-phenyl)-7-(methyl(1-phenylethyl)carbamoyl)quinoxalin-2-yl) pentanoic acid]
2.1 to 20	O=C(O)CCCCc1nc2cc(C(=O)N3CCCCC3c3ccccc3)ccc2nc1-c1ccc(Cl)cc1 (stereo not shown) [compound 645, 5-(3-(4-chlorophenyl)-7-(2-phenylpiperidine-1-carbonyl)quinoxalin-2-yl)pentanoic acid]
2.1 to 20	O=C(O)CCCCc1nc2cc(C(=O)N3CCCC3c3ccccc3)ccc2nc1-c1ccc(Cl)cc1 (stereo not shown) [compound 646, 5-(3-(4-chlorophenyl)-7-(2-phenylpyrrolidine-1-carbonyl)quinoxalin-2-yl)pentanoic acid]
20.1 to 200	O=C(O)CCCCc1nc2cc(C(=O)N3CCCCC3c3ccccn3)ccc2nc1-c1ccc(Cl)cc1 (stereo not shown) [compound 647, 5-(3-(4-chlorophenyl)-7-(2-(pyridin-2-yl)piperidine-1-carbonyl)quinoxalin-2-yl)pentanoic acid]
2.1 to 20	O=C(O)CCCCc1nc2cc(C(=O)N3CCC3c3ccccc3)ccc2nc1-c1ccc(Cl)cc1 (stereo not shown) [compound 648, 5-(3-(4-chlorophenyl)-7-(2-phenylazetidine-1-carbonyl)quinoxalin-2-yl)pentanoic acid]
20.1 to 200	CC(c1ccoc1)N(C)C(=O)c1ccc2nc(-c3ccc(Cl)cc3)c(CCCCC(=O)O)nc2c1 (stereo not shown) [compound 649, 5-(3-(4-chlorophenyl)-7-((1-(furan-3-yl)ethyl)(methyl)carbamoyl)quinoxalin-2-yl) pentanoic acid]
20.1 to 200	O=C(O)CCCCc1nc2cc(C(=O)N3CCCC3c3ccncc3)ccc2nc1-c1ccc(Cl)cc1 (stereo not shown) [compound 650, 5-(3-(4-chlorophenyl)-7-(2-(pyridin-4-yl)pyrrolidine-1-carbonyl)quinoxalin-2-yl)pentanoic acid]

Ki [nM]	Structure (SMILES)
20.1 to 200	Cn1ccnc1C1CCCCN1C(=O)c1ccc2nc(-c3ccc(Cl)cc3)c(CCCCC(=O)O)nc2c1 (stereo not shown) [compound 651, 5-(3-(4-chlorophenyl)-7-(2-(1-methyl-1H-imidazol-2-yl)piperidine-1-carbonyl)quinoxalin-2-yl)pentanoic acid]
2.1 to 20	Cc1nonc1C1CCCN1C(=O)c1ccc2nc(-c3ccc(Cl)cc3)c(CCCCC(=O)O)nc2c1 (stereo not shown) [compound 652, 5-(3-(4-chlorophenyl)-7-(2-(4-methyl-1,2,5-oxadiazol-3-yl)pyrrolidine-1-carbonyl)quinoxalin-2-yl)pentanoic acid]
201 to 700	O=C(O)CCCCc1nc2cc(C(=O)N3CCCCCC3c3cccnc3)ccc2nc1-c1ccc(Cl)cc1 (stereo not shown) [compound 653, 5-(3-(4-chlorophenyl)-7-(2-(pyridin-3-yl)azepane-1-carbonyl)quinoxalin-2-yl)pentanoic acid]
20.1 to 200	O=C(O)CCCCc1nc2cc(C(=O)N3CCCCC3c3nccs3)ccc2nc1-c1ccc(Cl)cc1 (stereo not shown) [compound 654, 5-(3-(4-chlorophenyl)-7-(2-(thiazol-2-yl)piperidine-1-carbonyl)quinoxalin-2-yl)pentanoic acid]
2.1 to 20	Cc1csc(C(C)N(C)C(=O)c2ccc3nc(-c4ccc(Cl)cc4)c(CCCCC(=O)O)nc3c2)n1 (stereo not shown) [compound 655, 5-(3-(4-chlorophenyl)-7-(methyl(1-(4-methylthiazol-2-yl)ethyl)carbamoyl)quinoxalin-2-yl)pentanoic acid]
2.1 to 20	O=C(O)CCCCc1nc2cc(C(=O)N3CCCC34CCc3cc(F)ccc34)ccc2nc1-c1ccc(Cl)cc1 (stereo not shown) [compound 656, 5-(3-(4-chlorophenyl)-7-(5-fluoro-2,3-dihydrospiro [indene-1,2′-pyrrolidin]-1′-ylcarbonyl)quinoxalin-2-yl)pentanoic acid]
20.1 to 200	CC(c1ccon1)N(C)C(=O)c1ccc2nc(-c3ccc(Cl)cc3)c(CCCCC(=O)O)nc2c1 (stereo not shown) [compound 657, 5-(3-(4-chlorophenyl)-7-((1-(isoxazol-3-yl)ethyl)(methyl)carbamoyl)quinoxalin-2-yl) pentanoic acid]
20.1 to 200	O=C(O)CCCCc1nc2cc(C(=O)N3CCCC34CCc3ccncc34)ccc2nc1-c1ccc(Cl)cc1 (stereo not shown) [compound 658, 5-(3-(4-chloro-phenyl)-7-(5,6-dihydrospiro [cyclopenta[c]pyridine-7,2′-pyrrolidin]-1′-ylcarbonyl)quinoxalin-2-yl)pentanoic acid]
20.1 to 200	O=C(O)CCCCc1nc2cc(C(=O)N3CCCC3c3nccs3)ccc2nc1-c1ccc(Cl)cc1 (stereo not shown) [compound 659, 5-(3-(4-chlorophenyl)-7-(2-(thiazol-2-yl)pyrrolidine-1-carbonyl)quinoxalin-2-yl)pentanoic acid]
20.1 to 200	Cc1noc(C2CCCCN2C(=O)c2ccc3nc(-c4ccc(Cl)cc4)c(CCCCC(=O)O)nc3c2)n1 (stereo not shown) [compound 660, 5-(3-(4-chlorophenyl)-7-(2-(3-methyl-1,2,4-oxadiazol-5-yl)piperidine-1-carbonyl)quinoxalin-2-yl)pentanoic acid]
2.1 to 20	O=C(O)CCCCc1nc2cc(C(=O)N3CCOC[C@H]3c3ccccc3)ccc2nc1-c1ccc(Cl)cc1 [compound 661, (R)-5-(3-(4-chlorophenyl)-7-(3-phenylmorphohne-4-carbonyl)quinoxalin-2-yl)pentanoic acid]
20.1 to 200	O=C(O)CCCCc1nc2cc(C(=O)N3CCCC3c3ccccn3)ccc2nc1-c1ccc(Cl)cc1 (stereo not shown) [compound 662, 5-(3-(4-chlorophenyl)-7-(2-(pyridin-2-yl)pyrrolidine-1-carbonyl)quinoxalin-2-yl)pentanoic acid]
2.1 to 20	CC1Cc2ccccc2CCN1C(=O)c1ccc2nc(-c3ccc(Cl)cc3)c(CCCCC(=O)O)nc2c1 (stereo not shown) [compound 663, 5-(3-(4-chlorophenyl)-7-(2-methyl-2,3,4,5-tetrahydro-1H-benzo[d]azepine-3-carbonyl)quinoxalin-2-yl)pentanoic acid]
2.1 to 20	Cc1ccc(CN2CCN(C(=O)c3ccc4nc(-c5ccc(Cl)cc5)c(CCCCC(=O)O)nc4c3)CC2)cc1 [compound 664, 5-(3-(4-chlorophenyl)-7-(4-(4-methylbenzyl)piperazine-1-carbonyl)quinoxalin-2-yl)pentanoic acid]
2.1 to 20	Cc1ccc(N2CCN(C(=O)c3ccc4nc(-c5ccc(Cl)cc5)c(CCCCC(=O)O)nc4c3)CC2)cc1 [compound 665, 5-(3-(4-chlorophenyl)-7-(4-(p-tolyl)piperazine-1-carbonyl)quinoxalin-2-yl)pentanoic acid]
2.1 to 20	CN1CCN(C(=O)c2ccc3nc(-c4ccc(Cl)cc4)c(CCCCC(=O)O)nc3c2)C(c2ccccc2)C1 (stereo not shown) [compound 666, 5-(3-(4-chlorophenyl)-7-(4-methyl-2-phenylpiperazine-1-carbonyl)quinoxalin-2-yl)pentanoic acid]
